Tests used:
[1] = target: Mitogen-activated protein kinase 14 (Homo sapiens, UniProt Q16539); test: Selectivity interaction (KinomeScan (DiscoverX)) EUB0000595a MAPK14; details: at 10 µM
[2] = system: Tyrosine-protein kinase ABL1 (Homo sapiens), P00519 [T315I]; test: Selectivity interaction (KinomeScan (DiscoverX)) EUB0000045b ABL1; details: at 10 µM
[3] = target: T1, Uncharacterized serine/threonine-protein kinase SBK3 (Homo sapiens) (UniProt P0C264); test: Selectivity interaction (KinomeScan (DiscoverX)) EUB0000045b SBK3
T1 sequence (whole entry): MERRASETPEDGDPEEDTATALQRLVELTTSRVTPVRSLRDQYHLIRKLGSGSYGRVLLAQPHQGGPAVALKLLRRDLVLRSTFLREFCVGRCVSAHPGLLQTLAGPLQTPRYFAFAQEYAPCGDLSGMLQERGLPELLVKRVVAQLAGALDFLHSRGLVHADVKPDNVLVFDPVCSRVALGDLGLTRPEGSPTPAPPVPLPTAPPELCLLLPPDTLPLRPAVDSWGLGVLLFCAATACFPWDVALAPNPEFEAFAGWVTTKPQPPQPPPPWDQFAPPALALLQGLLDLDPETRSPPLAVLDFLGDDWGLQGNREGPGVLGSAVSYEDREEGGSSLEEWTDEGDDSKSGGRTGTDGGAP

[4] = target: Endothelin-1 receptor (Homo sapiens) (UniProt P25101); test: Selectivity interaction (Panel of non-epigenetic targets (kinases, GPCRs, ion channels, and transporters, Eurofins) ) EUB0000271b EDNRA; details: at 1 µM
[5] = target: T2, Muscarinic acetylcholine receptor M2 (Homo sapiens) (UniProt P08172); test: Selectivity interaction (Panel of kinases, GPCRs, ion channels and transporters (enzymatic assay)) EUB0000266bCl CHRM2
T2 sequence (whole entry): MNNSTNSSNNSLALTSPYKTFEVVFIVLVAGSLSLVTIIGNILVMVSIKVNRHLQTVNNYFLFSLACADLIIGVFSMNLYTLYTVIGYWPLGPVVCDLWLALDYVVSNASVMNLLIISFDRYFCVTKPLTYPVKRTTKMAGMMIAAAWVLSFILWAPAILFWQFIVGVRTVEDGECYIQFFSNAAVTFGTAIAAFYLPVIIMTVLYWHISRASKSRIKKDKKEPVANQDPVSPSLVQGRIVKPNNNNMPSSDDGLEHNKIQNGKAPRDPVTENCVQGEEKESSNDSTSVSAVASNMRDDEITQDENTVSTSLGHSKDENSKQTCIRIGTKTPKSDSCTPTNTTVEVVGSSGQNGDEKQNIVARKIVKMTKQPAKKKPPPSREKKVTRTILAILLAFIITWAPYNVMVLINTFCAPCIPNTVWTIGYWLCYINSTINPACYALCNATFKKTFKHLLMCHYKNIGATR

[6] = target: Tyrosine-protein kinase Fyn (Homo sapiens) (UniProt P06241); test: Selectivity interaction (ActivX KiNativ screen (kinase selectivity in THP-1 cell lysates)) EUB0000639a FYN; assay type: subcellular; details: lysate
[7] = target: T3, Cyclin-dependent kinase 11A (Homo sapiens) (UniProt Q9UQ88); test: Selectivity interaction (ActivX KiNativ screen (kinase selectivity in THP-1 cell lysates)) EUB0000639a CDK11A; assay type: subcellular; details: lysate, at 1 µM
T3 sequence (whole entry): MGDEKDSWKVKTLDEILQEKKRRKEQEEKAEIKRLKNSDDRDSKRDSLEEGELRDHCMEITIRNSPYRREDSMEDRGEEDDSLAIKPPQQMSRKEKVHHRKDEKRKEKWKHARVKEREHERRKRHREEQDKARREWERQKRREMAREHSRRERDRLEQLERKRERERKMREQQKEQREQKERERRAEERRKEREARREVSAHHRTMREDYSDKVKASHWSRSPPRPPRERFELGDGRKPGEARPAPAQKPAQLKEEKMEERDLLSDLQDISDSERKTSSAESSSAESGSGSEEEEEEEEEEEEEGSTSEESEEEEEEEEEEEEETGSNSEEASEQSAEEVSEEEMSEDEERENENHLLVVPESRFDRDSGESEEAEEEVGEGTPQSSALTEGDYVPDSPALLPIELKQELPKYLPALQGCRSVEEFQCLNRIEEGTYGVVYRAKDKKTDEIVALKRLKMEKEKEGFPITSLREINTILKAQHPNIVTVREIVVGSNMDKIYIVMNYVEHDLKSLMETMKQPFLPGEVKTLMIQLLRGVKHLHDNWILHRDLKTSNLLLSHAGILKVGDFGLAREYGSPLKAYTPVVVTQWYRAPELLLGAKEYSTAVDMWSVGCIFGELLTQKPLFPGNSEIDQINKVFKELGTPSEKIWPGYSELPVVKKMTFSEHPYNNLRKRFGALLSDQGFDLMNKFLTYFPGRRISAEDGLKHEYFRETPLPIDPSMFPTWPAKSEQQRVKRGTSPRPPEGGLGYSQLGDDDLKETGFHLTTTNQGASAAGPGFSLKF

[8] = target: Interferon-induced, double-stranded RNA-activated protein kinase (Homo sapiens) (UniProt P19525); test: Selectivity interaction (ActivX KiNativ screen (kinase selectivity in THP-1 cell lysates)) EUB0000639a EIF2AK2; assay type: subcellular; details: lysate, at 0.04 µM
[9] = target: T4, Serine/threonine-protein kinase ULK3 (Homo sapiens) (UniProt Q6PHR2); test: Selectivity interaction (ActivX KiNativ screen (kinase selectivity in THP-1 cell lysates)) EUB0000639a ULK3; assay type: subcellular; details: lysate, at 5 µM
T4 sequence (whole entry): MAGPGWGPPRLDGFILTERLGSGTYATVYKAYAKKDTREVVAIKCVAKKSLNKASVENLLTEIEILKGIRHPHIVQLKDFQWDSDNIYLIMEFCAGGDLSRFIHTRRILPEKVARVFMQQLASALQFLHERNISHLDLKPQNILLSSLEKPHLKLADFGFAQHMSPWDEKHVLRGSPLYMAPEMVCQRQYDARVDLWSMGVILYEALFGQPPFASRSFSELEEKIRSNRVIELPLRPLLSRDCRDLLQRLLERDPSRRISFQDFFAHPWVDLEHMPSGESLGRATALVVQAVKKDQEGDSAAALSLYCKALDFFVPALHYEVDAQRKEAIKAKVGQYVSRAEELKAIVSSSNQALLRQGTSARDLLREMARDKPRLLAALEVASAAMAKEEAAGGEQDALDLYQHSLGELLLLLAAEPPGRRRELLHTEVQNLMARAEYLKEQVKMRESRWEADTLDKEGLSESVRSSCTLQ

[10] = target: Cyclin-dependent kinase 5 (Homo sapiens, UniProt Q00535); test: Selectivity interaction (KinomeScan (DiscoverX)) EUB0000655a CDK5; details: at 10 µM
[11] = target: Phosphatidylinositol 4-phosphate 5-kinase type-1 alpha (Homo sapiens) (UniProt Q99755); details: at 10 µM
Sequence of Phosphatidylinositol 4-phosphate 5-kinase type-1 alpha (Homo sapiens) (Q99755 whole entry): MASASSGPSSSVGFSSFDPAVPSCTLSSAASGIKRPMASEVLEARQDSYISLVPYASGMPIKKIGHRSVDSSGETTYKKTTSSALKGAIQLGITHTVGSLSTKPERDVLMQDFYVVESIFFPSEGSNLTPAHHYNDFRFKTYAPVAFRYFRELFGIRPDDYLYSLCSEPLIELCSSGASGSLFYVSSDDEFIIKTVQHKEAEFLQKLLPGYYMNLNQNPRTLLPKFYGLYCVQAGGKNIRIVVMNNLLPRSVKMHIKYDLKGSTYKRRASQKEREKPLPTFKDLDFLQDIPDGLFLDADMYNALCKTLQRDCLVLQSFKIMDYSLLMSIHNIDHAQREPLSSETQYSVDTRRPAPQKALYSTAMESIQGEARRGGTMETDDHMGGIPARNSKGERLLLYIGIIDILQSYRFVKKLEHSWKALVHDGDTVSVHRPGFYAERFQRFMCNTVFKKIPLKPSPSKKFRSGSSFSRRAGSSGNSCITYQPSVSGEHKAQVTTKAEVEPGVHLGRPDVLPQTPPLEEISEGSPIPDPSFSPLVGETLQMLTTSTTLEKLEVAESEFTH

Sequence of Tyrosine-protein kinase Fyn (Homo sapiens) (P06241 2-537 limits assumed): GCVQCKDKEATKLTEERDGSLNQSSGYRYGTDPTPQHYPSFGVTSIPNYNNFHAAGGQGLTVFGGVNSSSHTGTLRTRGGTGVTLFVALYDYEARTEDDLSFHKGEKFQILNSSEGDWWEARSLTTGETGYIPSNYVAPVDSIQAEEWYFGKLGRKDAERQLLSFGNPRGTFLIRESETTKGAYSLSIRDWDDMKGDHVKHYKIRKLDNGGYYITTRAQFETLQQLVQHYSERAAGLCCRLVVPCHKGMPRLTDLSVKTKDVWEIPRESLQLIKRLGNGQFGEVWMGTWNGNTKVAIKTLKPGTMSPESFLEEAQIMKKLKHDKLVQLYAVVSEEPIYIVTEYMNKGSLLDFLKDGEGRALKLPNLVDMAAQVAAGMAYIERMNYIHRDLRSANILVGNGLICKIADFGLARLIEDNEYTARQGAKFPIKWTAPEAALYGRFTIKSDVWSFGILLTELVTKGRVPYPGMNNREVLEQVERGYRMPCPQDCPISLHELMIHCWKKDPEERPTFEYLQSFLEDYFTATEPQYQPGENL
Sequence of Interferon-induced, double-stranded RNA-activated protein kinase (Homo sapiens) (P19525 whole entry): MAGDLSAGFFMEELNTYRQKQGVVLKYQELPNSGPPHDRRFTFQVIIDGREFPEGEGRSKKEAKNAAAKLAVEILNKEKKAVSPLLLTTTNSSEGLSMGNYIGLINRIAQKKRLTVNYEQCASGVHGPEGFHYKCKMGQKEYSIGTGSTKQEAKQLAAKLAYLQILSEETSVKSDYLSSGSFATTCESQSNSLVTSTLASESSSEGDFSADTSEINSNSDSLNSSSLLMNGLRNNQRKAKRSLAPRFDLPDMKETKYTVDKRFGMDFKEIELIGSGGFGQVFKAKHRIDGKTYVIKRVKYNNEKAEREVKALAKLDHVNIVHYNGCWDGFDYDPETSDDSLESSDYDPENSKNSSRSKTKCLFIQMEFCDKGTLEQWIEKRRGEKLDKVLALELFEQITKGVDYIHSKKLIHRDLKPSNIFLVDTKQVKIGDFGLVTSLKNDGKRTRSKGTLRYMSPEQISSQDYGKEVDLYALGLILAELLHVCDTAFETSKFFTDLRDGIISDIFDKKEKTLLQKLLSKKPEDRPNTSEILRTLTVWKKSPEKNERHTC
Sequence of Mitogen-activated protein kinase 14 (Q16539 whole entry): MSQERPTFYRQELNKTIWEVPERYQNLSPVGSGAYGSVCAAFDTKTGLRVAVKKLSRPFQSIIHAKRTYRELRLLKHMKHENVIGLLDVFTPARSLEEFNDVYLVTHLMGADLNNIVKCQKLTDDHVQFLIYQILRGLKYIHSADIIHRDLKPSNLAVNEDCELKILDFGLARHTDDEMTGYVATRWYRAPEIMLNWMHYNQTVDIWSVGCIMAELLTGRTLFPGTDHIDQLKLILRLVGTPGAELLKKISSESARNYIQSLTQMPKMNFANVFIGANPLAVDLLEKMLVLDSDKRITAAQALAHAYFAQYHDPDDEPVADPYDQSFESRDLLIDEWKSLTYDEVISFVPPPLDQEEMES
Sequence of Endothelin-1 receptor (Homo sapiens) (P25101 whole entry): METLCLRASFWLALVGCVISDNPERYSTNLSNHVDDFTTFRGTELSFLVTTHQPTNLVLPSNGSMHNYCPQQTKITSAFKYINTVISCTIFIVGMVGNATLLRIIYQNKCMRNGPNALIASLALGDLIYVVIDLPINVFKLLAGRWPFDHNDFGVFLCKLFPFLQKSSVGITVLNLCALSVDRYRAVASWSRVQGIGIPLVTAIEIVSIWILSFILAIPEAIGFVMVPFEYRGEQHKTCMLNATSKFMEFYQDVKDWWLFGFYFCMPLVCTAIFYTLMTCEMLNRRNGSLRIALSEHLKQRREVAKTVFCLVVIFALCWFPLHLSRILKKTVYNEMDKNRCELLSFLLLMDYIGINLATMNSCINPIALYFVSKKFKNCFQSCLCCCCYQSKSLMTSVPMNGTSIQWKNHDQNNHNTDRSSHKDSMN
Sequence of Cyclin-dependent kinase 5 (Q00535 whole entry, looked up): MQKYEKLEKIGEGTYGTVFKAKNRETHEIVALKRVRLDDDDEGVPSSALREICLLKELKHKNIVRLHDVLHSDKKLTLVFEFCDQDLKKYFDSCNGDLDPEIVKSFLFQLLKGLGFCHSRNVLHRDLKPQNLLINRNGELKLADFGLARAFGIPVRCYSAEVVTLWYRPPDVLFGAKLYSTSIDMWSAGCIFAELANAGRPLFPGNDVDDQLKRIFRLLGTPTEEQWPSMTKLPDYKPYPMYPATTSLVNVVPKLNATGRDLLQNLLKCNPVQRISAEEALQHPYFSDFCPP

Molecule `COCC(=O)NC/C=C/c1ccc2ncnc(Nc3ccc(Oc4ccc(C)nc4)c(C)c3)c2c1` [CP-724714] has a % of control [1] of 100%.

In the case of `C=CC(=O)Nc1cc(-n2c(=O)ccc3cnc4ccc(-c5ccc(NS(C)(=O)=O)cc5)cc4c32)ccc1C`, the % of control [2] is reported as 100%, the % of control ([3]; at 1 µM) is reported as 100% and the % of control ([3]; at 10 µM) is reported as 100%.

`Cc1cc(C)cc([C@@H]2c3cc(C)ccc3NC(=O)CN2C(=O)c2ccc(Br)s2)c1` showed a % of inhibition [4] of -24%.

Work on `CCn1c(-c2nc3cc(C(=O)N4CCCC(N)C4)ccc3n2C)cc2ccccc21` (stereo unspecified) yielded a pXC50 [5] of under 4.8 M.

`CC[C@@H]1[C@H](F)C(=O)N[C@@H]1COc1nccc2cc(C(N)=O)c(OC)cc12` [ZIMLOVISERTIB] was tested, and the % of inhibition ([6]; at 0.01 µM) was -12.7%, the % of inhibition ([6]; at 0.04 µM) was -16.1% and the % of inhibition ([6]; at 0.2 µM) was -5.4%. For the same molecule, the % of inhibition ([6]; at 1 µM) was -3.3%, the % of inhibition ([6]; at 5 µM) was -18.6% and the % of inhibition [7] was 6.7%. It also gave a % of inhibition [8] of 3.1% and a % of inhibition [9] of -10.2%.

Molecule `CN(C)CCOc1ccc(-c2nc(-c3ccncc3)c(-c3ccc4c(c3)CC/C4=N\O)[nH]2)cc1` has a % of control [10] of 100%.

`CCN(CC)CCCCNc1ncc2cc(-c3cc(OC)cc(OC)c3)c(NC(=O)NC(C)(C)C)nc2n1` gave a % of control [11] of 100%.
